From patent US11603543B2, “Fusogenic lipid nanoparticles for target cell-specific production of a therapeutic protein” (Oisin Biotechnologies, Inc., priority 2018, dated 2023)

Columns and labels:
[1] = test system: Human prostate cancer PC-3 cells; experiment: Western blot of iCasp9 and Casp9 protein levels in PC-3 cells; type: cell-based; conditions: PC-3 cells treated with Fusogenix lipid nanoparticles carrying pVax-p53-iCasp9-luc plasmid
Method: FIG. 36 is a Western blot of iCasp 9 and Casp 9 protein levels obtained with p53-expressing cells (pVax-p53) and control cells (pcDNA3-GFP). Human prostate cancer PC-3 cells were treated with Fusogenix lipid nanoparticles carrying the pVax-p53-iCasp9-luc (luciferin) plasmid (in the presence and absence of the homodimerizer AP201870) and assessed for iCasp9 expression.
Human prostate cancer PC-3 cells were treated with Fusogenix lipid nanoparticles carrying the pVax-p53-iCasp9-luc (luciferin) plasmid (in the presence and absence of the homodimerizer AP201870) and assessed for iCasp9 expression and subjected to Western blot analysis of iCasp 9 and Casp 9 protein levels obtained with p53-expressing cells (pVax-p53) and control cells (pcDNA3-GFP). FIG. 36.

[2] = test system: Human prostate cancer (LNCaP, DU145, PC-3) or normal epithelial (RWPE) cells; experiment: Western blot and luminescence assays of iCasp9 expression in prostate cancer and normal epithelial cells; type: cell-based; conditions: DU145, PC-3, RWPE cells treated with Fusogenix lipid nanoparticles carrying pVax-p53-iCasp9-luc plasmid
[3] = test system: Human prostate cancer PC-3 cells; experiment: Luminescence assay of iCasp9 expression in PC-3 cells; type: cell-based; conditions: PC-3 cells treated with Fusogenix lipid nanoparticles carrying pVax-p53-iCasp9-luc plasmid
Method: FIG. 42 is a bar graph of data from a luminescence assay of iCasp 9 and Casp 9 protein levels obtained with the p53-expressing cells presented in FIG. 36 (pVax-p53) and control cells (pcDNA3-GFP). Human prostate cancer PC-3 cells were treated with Fusogenix lipid nanoparticles carrying the pVax-p53-iCasp9-luc (luciferin) plasmid (in the presence and absence of the homodimerizer AP20187) and assessed for iCasp9 expression.
Human prostate cancer PC-3 cells were treated with Fusogenix lipid nanoparticles carrying the pVax-p53-iCasp9-luc (luciferin) plasmid (in the presence and absence of the homodimerizer AP20187) and assessed for iCasp9 expression.

[4] = humans; cited from earlier work
[5] = Anti-p14 and anti-LNP antibody response in immune competent mice; type: in vivo; conditions: with adjuvant: 3 injections of 50 μg p14 with Freund's adjuvant at 10 day intervals; sera after 30 days
Method: Mice were injected three (3) times at 10 day intervals with purified p14 mixed with Freund's adjuvant. A first dose contained CFA (complete Freund's adjuvant) while second and third doses contained IFA (incomplete Freund's adjuvant). Each injection was with 50 μg of p14. Mice were sacrificed after 30 days and sera was analyzed for anti-p14 antibodies. p14 lipid nanoparticles were also tested in two (2) mice via intravenous injection of 400 μg of p53-iCasp9 Fusogenix lipid nanoparticles containing 240 μg of p14. Mice were sacrificed after 30 days of injection and serum was analyzed for anti-p14 antibodies. A positive control included purified antibodies spiked in serum at a high dose of 250 ng/ml and a low dose of 50 ng/ml.

**Q.** What does the source list for `CC[C@H](C(=O)N1CCCC[C@H]1C(=O)O[C@H](CCc1ccc(OC)c(OC)c1)c1cccc(OCC(=O)NCCNC(=O)COc2cccc([C@@H](CCc3ccc(OC)c(OC)c3)OC(=O)[C@@H]3CCCCN3C(=O)[C@@H](CC)c3cc(OC)c(OC)c(OC)c3)c2)c1)c1cc(OC)c(OC)c(OC)c1` [AP1903]?
**A.** expression of iCasp9 and luciferase after addition of CID [1]: abolishes the expression of iCasp9 and luciferase; expression of iCasp9 and luciferase after addition of CID [2]: abolishes the expression of iCasp9 and luciferase; expression of iCasp9 and luciferase after addition of CID [3]: abolishes the expression of iCasp9 and luciferase; intravenous safety [4]: confirmed

**Q.** With `CC[C@H](C(=O)N1CCCC[C@H]1C(=O)O[C@H](CCc1ccc(OC)c(OC)c1)c1cccc(OCC(=O)NCC(CNC(=O)COc2cccc([C@@H](CCc3ccc(OC)c(OC)c3)OC(=O)[C@@H]3CCCCN3C(=O)[C@@H](CC)c3cc(OC)c(OC)c(OC)c3)c2)CN(C)C)c1)c1cc(OC)c(OC)c(OC)c1` [AP20187] as the molecule, how does the “expression of iCasp9 and luciferase after addition of CID” value (from here on “expression of iCasp9 and luciferase”) [1] read?
**A.** abolishes the expression of iCasp9 and luciferase

**Q.** And the “expression of iCasp9 and luciferase” value [2]?
**A.** abolishes the expression of iCasp9 and luciferase

**Q.** And the “expression of iCasp9 and luciferase” value [3]?
**A.** abolishes the expression of iCasp9 and luciferase

B1: p14: fusogenic p14 FAST fusion protein from reptilian reovirus, SEQ ID NO: 16 (protein, listed as Homo sapiens)
chain: MGSGPSNFVNHAPGEAIVTGLEKGADKVAGTISHTIWEVIAGLVALLTFLAFGFWLFKYLQKRRERRRQLTEFQKRYLRNSYRLSEIQRPISQHEYEDPYEPPSRRKPPPPPYSTYVNIDNVSAI
**Q.** For B1, which anti-p14 antibody response [5] is on record?
**A.** virtually no antibody response
